According to paper PMC5017016, “Calcium/calmodulin alleviates substrate inhibition in a strawberry UDP-glucosyltransferase involved in fruit anthocyanin biosynthesis” (BMC Plant Biology, 2016):

Molecular target: T1, FvUGT1 (Fragaria vesca, UniProt A0A1S5NSV4)
T1 construct: gene UGT1; full-length ORF in pET-32 (KpnI/BamHI), N- and C-terminal His-tags kept, fusion 72 kD, E. coli BL21(DE3) pLysS, Ni-NTA; oligomer state unknown
T1 sequence (A0A1S5NSV4 1-465): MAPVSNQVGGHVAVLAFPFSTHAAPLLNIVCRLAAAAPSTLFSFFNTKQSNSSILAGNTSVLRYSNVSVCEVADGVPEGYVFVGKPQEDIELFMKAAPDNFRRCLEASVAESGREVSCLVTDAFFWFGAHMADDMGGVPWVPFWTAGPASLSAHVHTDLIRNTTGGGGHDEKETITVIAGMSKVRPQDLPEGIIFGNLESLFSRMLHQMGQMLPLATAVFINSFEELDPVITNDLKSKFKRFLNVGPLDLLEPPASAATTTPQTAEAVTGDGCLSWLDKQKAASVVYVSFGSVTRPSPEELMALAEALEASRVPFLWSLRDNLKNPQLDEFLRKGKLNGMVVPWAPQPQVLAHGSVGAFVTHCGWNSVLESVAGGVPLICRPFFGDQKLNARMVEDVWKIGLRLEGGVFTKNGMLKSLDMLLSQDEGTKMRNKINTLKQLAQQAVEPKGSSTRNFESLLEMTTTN
Test: phosphatase-coupled malachite green glycosyltransferase assay; partial uncompetitive substrate inhibition fit (modified Hill, x = […])
Type: biochemical
Conditions: second site, no calmodulin, 5 mM UDP-Glc, 0–1,400 μM pelargonidin chloride, 10 mM CaCl2, pH 7.5, 37 °C

How did the “K i” value turn out when `Oc1ccc(-c2[o+]c3cc(O)cc(O)c3cc2O)cc1` [pelargonidin] was run?
The value was 331.5 ± 13.3 µM.
